Measurements from patent US20240027453A1, “METHOD FOR DETECTION AND QUANTITATIVE MONITORING OF INFECTIONS WITH HERPESVIRUSES” (The Trustees of Princeton University, priority 2020, published 2024).
Where two headings read alike, the source gives them in different places.

Test system: HCMV
Assay type: cell-based
Description: In example herpesvirus PRM assay methods shown herein, cell pellets were lysed in 2% SDS, 100 mM NaCl, 0.5 mM EDTA, 50 mM Tris, pH 8.2, and 50 μg of protein was reduced and alkylated with 25 mM TCEP and 50 mM CAM respectively for 20 min at 70° C. Proteins were then precipitated via methanol chloroform precipitation (Wessel & Flugg, Anal Biochem. 138(1):141-143, 1984), resuspended in 50 mM HEPES, pH 8.2 and digested overnight with trypsin (50:1 protein:enzyme w/w ratio). Digested peptides were desalted by SDB-RPS StageTip as previously described (Lum et al., Cell Syst., 7(6):[…], 2018; Greco et al., Methods Mol Biol 1410:39-63, 2016; Federspiel & Cristea, Methods Mol Biol., 1977:115-143, 2019).
Peptides (1.0 μg on column) were analyzed by LC-MS/MS using a Dionex Ultimate 3000 UHPLC coupled online to an EASYSpray ion source and a Q Exactive HF. Peptides were separated on an EASYSpray C18 column (75 μm×25 cm) heated to 50° C. using a linear gradient of 5% B to 32% B over 60 min at a flow rate of 250 nL/min and were ionized at 1.7 kv. Mobile phase A consisted of 0.1% FA in H2O and mobile phase B consisted of 0.1% FA, 2.9% H2O in ACN.
The PRM method was controlled by a peptide inclusion list with retention time windows of 6 min for selected precursor ions.
The PRM assay was developed and analyzed using the open-source software Skyline (Maclean et al., Bioinformatics 26(7):966-968, 2010). Summed area under the curve of 3-4 transitions per peptide was used for quantitation. Targeted peptides were normalized to host protein loading control peptides. Peptide values for each sample were scaled to the average of each peptide across all runs. The average of multiple peptides was used as the inferred value for the protein measurement when more than one peptide was quantified (Federspiel et al., PLoS Biol. 17(9):e3000437. Doi: 10.1371/journal.pbio.3000437). PRM quantitation data were graphed using the Python Seaborn and Matplotlib libraries.
MRC5 primary human fibroblasts (HFs) (ATCC CCL-171) were used as the model system for HSV-1 and HCMV infections and were cultured in complete growth medium (DMEM supplemented with 10% fetal bovine serum and 1% penicillin-streptomycin antibiotics) at 37° C. and 5% CO2. iSLK.219 cells harboring latent KSHV (a gift from Dr. Britt Glaunsinger, University of California, Berkeley) were grown in complete growth medium supplemented with 500 μg/ml hygromycin (ThermoFisher Scientific, 10687010) at 37° C. and 5% CO2. All cells were used for experiments within a maximum of 10 passages.
Wild type HSV-1 strain 17+ (a gift from Beate Sodeik, Hannover Medical School, Hannover, Germany) was propagated as previously described (Diner et al., 2015). Briefly, PO stocks were generated by electroporating pBAC-HSV-1 into U-2 OS cells. […] In a similar manner, wild type HCMV strain AD169 was produced from BAC electroporation into HFs and working stocks were propagated by infecting HFs at a low level. In both cases, cell-associated virus was released by sonication, combined with supernatant virus, then concentrated by ultracentrifugation (20,000 rpm, 2 hours, 4° C. with SW28 swinging bucket rotor [Beckman Coulter]) over a 10% ficoll (HSV-1) or 20% sorbitol (HCMV) cushion. Virus stock titers were determined by plaque assay for HSV-1 or tissue culture infectious dose (TCID50) for HCMV and infections were performed at a multiplicity of infection (MOI) of 3.
12 hours prior to virus infection or reactivation, cells were treated with either the small molecule drug or DMSO/PBS control at an equivalent volume. […] For infection cycles lasting longer than 24 hours, small molecule drugs were re-added to the cell culture medium every 24 hours. Upon collection, cells were rinsed with PBS, scraped into a microcentrifuge tube, pelleted by centrifugation, and rinsed again with PBS.

Compound: Nc1c(S(=O)(=O)c2ccccc2)c2nc3ccccc3nc2n1-c1ccc(F)cc1 [CAY10602]
- GO (P16750) protein level (timepoint 72, L): 0.05989
- IR11 (P16809) protein level (timepoint 72, L): 0.4344
- MCP (P16729) protein level (timepoint 72, L): 0.02624
- SCP (Q7M6N6) protein level (timepoint 72, L): 0.015
- TRM2 (P16792) protein level (timepoint 72, L): 0.0795
- UL22A (P16845) protein level (timepoint 72, L): 0.215
- UL25 (P16761) protein level (timepoint 72, L): 0.096
- UL29 (P16764) protein level (timepoint 72, L): 0.506
- UL30 (P16765) protein level (timepoint 72, L): 0.1431
- UL31 (P16848) protein level (timepoint 72, L): 0.1447
- UL43 (P16781) protein level (timepoint 72, L): 0.03176
- UL52 (P16793) protein level (timepoint 72, L): 0.1191
- UL76 (P16725) protein level (timepoint 72, L): 0.03192
- UL80 (P16753) protein level (timepoint 72, L): 0.06052
- UL82 (P06726) protein level (timepoint 72, L): 0.1042
- UL87 (P16730) protein level (timepoint 72, L): 0.09029
- UL88 (P16731) protein level (timepoint 72, L): 0.1686
- UL94 (P16800) protein level (timepoint 72, L): 0.1145
- UL99 (P13200) protein level (timepoint 72, L): 0.05513
- UL103 (P16734) protein level (timepoint 72, L): 0.09275
- UL117 (P16770) protein level (timepoint 72, L): 0.3151
- gH (P12824) protein level (timepoint 72, L): 0.1032
- gL (P16832) protein level (timepoint 72, L): 0.08246
- gM (P16733) protein level (timepoint 72, L): 0.06242
- gN (P16795) protein level (timepoint 72, L): 0.1122
- IR10 (P16808) protein level (timepoint 72, LL): 0.03558
- IR12 (P16810) protein level (timepoint 72, LL): 0.4497
- TRM3 (P16732) protein level (timepoint 72, LL): 0.03658
- TRX1 (P16783) protein level (timepoint 72, LL): 0.02099
- TRX2 (P16728) protein level (timepoint 72, LL): 0.02193
- UL24 (P16760) protein level (timepoint 72, LL): 0.1166
- UL40 (P16780) protein level (timepoint 72, LL): 0.4727
- UL47 (P16784) protein level (timepoint 72, LL): 0.06008
- UL49 (P16786) protein level (timepoint 72, LL): 0.1643
- UL69 (P16749) protein level (timepoint 72, LL): 0.2062
- UL70 (P17149) protein level (timepoint 72, LL): 0.4194
- UL83 (P06725) protein level (timepoint 72, LL): 0.02048
- UL132 (P69338) protein level (timepoint 72, LL): 0.1287
- US15 (P09718) protein level (timepoint 72, LL): 0.4326
- CVC2 (P16726) protein level (timepoint 96, DE): 0.1714
- DBP (P17147) protein level (timepoint 96, DE): 0.7941
- HELI (P16736) protein level (timepoint 96, DE): 0.8017
- IR01 (P09710) protein level (timepoint 96, DE): 0.4575
- NEC1 (P16794) protein level (timepoint 96, DE): 0.0869
- NEC2 (P16791) protein level (timepoint 96, DE): 0.2886
- RIR1 (P16782) protein level (timepoint 96, DE): 0.2098
- TRM1 (P16724) protein level (timepoint 96, DE): 0.3134
- UL4 (P17146) protein level (timepoint 96, DE): 0.2128
- UL26 (P16762) protein level (timepoint 96, DE): 0.2828
- UL32 (P08318) protein level (timepoint 96, DE): 0.1168
- UL34 (P16812) protein level (timepoint 96, DE): 0.2231
- UL35 (P16766) protein level (timepoint 96, DE): 0.1252
- UL38 (P16779) protein level (timepoint 96, DE): 0.6672
- UL44 (P16790) protein level (timepoint 96, DE): 0.176
- UL48 (P16785) protein level (timepoint 96, DE): 0.2807
- UL54 (P08546) protein level (timepoint 96, DE): 0.9075
- UL71 (P16823) protein level (timepoint 96, DE): 0.4754
- UL78 (P16751) protein level (timepoint 96, DE): 0.4235
- UL84 (P16727) protein level (timepoint 96, DE): 0.2328
- UL95 (P16801) protein level (timepoint 96, DE): 0.312
- UL96 (P16787) protein level (timepoint 96, DE): 0.4112
- UL97 (P16788) protein level (timepoint 96, DE): 0.3037
- UL98 (P16789) protein level (timepoint 96, DE): 0.4674
- UL102 (P16827) protein level (timepoint 96, DE): 0.9006
- UL104 (P16735) protein level (timepoint 96, DE): 0.3067
- UL112/UL113 (P17151) protein level (timepoint 96, DE): 0.5114
- UL114 (P16769) protein level (timepoint 96, DE): 0.7883
- UL119/UL118 (P16739) protein level (timepoint 96, DE): 0.6695
- UL128 (P16837) protein level (timepoint 96, DE): 0.1937
- US8 (P09730) protein level (timepoint 96, DE): 0.6801
- US9 (P09729) protein level (timepoint 96, DE): 0.7084
- US12 (P09721) protein level (timepoint 96, DE): 0.4505
- US13 (P09720) protein level (timepoint 96, DE): 0.8895
- US14 (P09719) protein level (timepoint 96, DE): 0.3447
- US18 (P69334) protein level (timepoint 96, DE): 0.9283
- US22 (P09722) protein level (timepoint 96, DE): 0.6231
- US23 (P09701) protein level (timepoint 96, DE): 0.5304
- US24 (P09700) protein level (timepoint 96, DE): 0.485
- US34 (P09709) protein level (timepoint 96, DE): 0.2125
- gB (P06473) protein level (timepoint 96, DE): 0.285
- IRS1 (P09715) protein level (timepoint 96, IE): 0.7821
- TRS1 (P09695) protein level (timepoint 96, IE): 0.7146
- UL13 (P16755) protein level (timepoint 96, IE): 0.2986
- UL36 (P16767) protein level (timepoint 96, IE): 0.5836
- UL37 (P16778) protein level (timepoint 96, IE): 0.8017
- UL122 (P19893) protein level (timepoint 96, IE): 0.1642
- UL123 (P13202) protein level (timepoint 96, IE): 0.4758
- CVC1 (P16799) protein level (timepoint 96, L): 0.2252
- GO (P16750) protein level (timepoint 96, L): 0.2443
- IR11 (P16809) protein level (timepoint 96, L): 0.9075
- MCP (P16729) protein level (timepoint 96, L): 0.1482
- SCP (Q7M6N6) protein level (timepoint 96, L): 0.1246
- TRM2 (P16792) protein level (timepoint 96, L): 0.19
- UL22A (P16845) protein level (timepoint 96, L): 0.3485
- UL25 (P16761) protein level (timepoint 96, L): 0.2353
- UL29 (P16764) protein level (timepoint 96, L): 0.6674
- UL30 (P16765) protein level (timepoint 96, L): 0.2355
- UL31 (P16848) protein level (timepoint 96, L): 0.2462
- UL43 (P16781) protein level (timepoint 96, L): 0.05313
- UL52 (P16793) protein level (timepoint 96, L): 0.3224
- UL76 (P16725) protein level (timepoint 96, L): 0.1513
- UL79 (P16752) protein level (timepoint 96, L): 0.3299
- UL80 (P16753) protein level (timepoint 96, L): 0.2674
- UL82 (P06726) protein level (timepoint 96, L): 0.2566
- UL87 (P16730) protein level (timepoint 96, L): 0.2646
- UL88 (P16731) protein level (timepoint 96, L): 0.3926
- UL94 (P16800) protein level (timepoint 96, L): 0.2776
- UL99 (P13200) protein level (timepoint 96, L): 0.1753
- UL103 (P16734) protein level (timepoint 96, L): 0.2489
